pIC50: −log10 of the molar value. Structures can show the parent of a compound that is named as a salt.
Tests used:
Rats (carrageenan paw) = assay: Anti-inflammatory activity, carrageenan paw swelling; type: in vivo; conditions: rat, 10 mg/kg, swelling after 3 hours; for Carrageenan Paw (% inhibition) po: oral gavage
Experimental: Carrageenan (Type λ) was suspended in sterile PBS at 1% (w/v), autoclaved for 30 minutes, and stored at room temperature. Rats were pretreated with vehicle or AK inhibitor (10 mg/kg) by oral gavage or i.p. administration and the volume of the left hind paw was measured using a water displacement plethysmometer (Stoelting Co., Wood Dale, Ill.). One hour after oral treatment or 30 minutes after i.p. treatment, the rats were briefly anesthetized, and 0.1 ml of the carrageenan solution was injected subcutaneously into the planar surface of the left hind paw. The ensuing paw swelling was measured by plethysmometry after 3 hours. The paw volume in millileters was […]. Data are presented in Table 2 as the percent inhibition of paw swelling in AK inhibitor treated animals, compared to vehicle treated control animals.

Female SA rats = assay: Liver toxicity assay; type: in vivo; conditions: rat, i.v. infusion, total dose 75 μmole/kg, serum
Experimental: Female SA rats (150-200 g) are anesthetized with halothane and cannulated via the internal jugular vein. The animals are allowed to recover for 3 days. At this time, 37.5 μmole/kg of an AK inhibitor is dissolved in 50% PEG400 and infused through the jugular catheter over 20 minutes. Twelve hours later, an additional 37.5 μmole/kg is infused over 20 minutes (total dose =75 μmole/kg). […] Liver enzymes (serum glutamic-oxaloacetic transaminase (SGOT), serum glutamic-pyruvic transaminase (SGPT), alkaline phosphatase) and total bilirubin in the serum samples are determined by a commercial laboratory.

[1] = target: partially purified pig heart adenosine kinase or recombinant human adenosine kinase; assay: AK inhibition; type: biochemical; conditions: 0.5 μM [U-14C] adenosine, pH 7.0, 37° C., 20 minutes
Experimental: Adenosine kinase activity was measured essentially as described by Yamada et al. Biochim. Biophys. Acta 660, 36-43 (1988) with a few minor modifications. Assay mixtures contained 50 mM TRIS-maleate buffer, pH 7.0, 0.1% BSA, 1 mM ATP 1 mM MgCl2, 0.5 μM [U-^14 C] adenosine (400-600 mCi/mmol) and varying duplicate concentrations of inhibitor. […] The amount of ^14 C-AMP was quantified by scintillation counting.

pIC50 [1] | SMILES | Carrageenan Paw (% inhibition) ip (Rats (carrageenan paw)) | Alkaline Phosphatase (Female SA rats) | SGOT (Female SA rats) | SGPT (Female SA rats) | Carrageenan Paw (% inhibition) po (Rats (carrageenan paw)) | Total Bilirubin (Female SA rats)
 | C[C@H]1O[C@@H](n2cc(-c3ccccc3)c3c(Nc4ccc(CN(C)C)cc4)ncnc32)[C@H](O)[C@@H]1O [Compound 1, 4-N-(4-(N,N-Dimethylaminomethyl)phenyl)amino-5-phenyl-7-(5-deoxy-β-D-ribofuranosyl)pyrrolo[2,3-d]pyrimidine] | 26.0% | 131 IU/L | 75 IU/L | 44 IU/L |  | 
9.00 | CCN(CC)CCc1ccc(Nc2ncnc3c2c(-c2ccccc2)cn3[C@@H]2O[C@H](C)[C@@H](O)[C@H]2O)cc1 [Compound 6, 4-N-[4-(2-N,N-diethylaminoethyl)phenyl]amino-5-phenyl-7-(5-deoxy-β-D-ribofuranosyl)pyrrolo[2,3-d]pyrimidine] | 81.5% | 104 IU/L | 306 IU/L | 110 IU/L | 42.6% | 0.43 mg/dL
9.52 | OC[C@@H]1O[C@@H](n2cc(-c3ccccc3)c3c(Nc4ccc(CCN5CCNCC5)cc4)ncnc32)[C@H](O)[C@@H]1O [Compound 12, 4-N-[4-(1-piperazinoethyl)phenyl]amino-5-phenyl-7-α-L-lyxofuranosylpyrrolo[2,3-d]pyrimidine] | 58.8% | 106 IU/L | 211 IU/L | 76 IU/L | 51.0% | 0.41 mg/dL
9.00 | C[C@H]1O[C@@H](n2cc(-c3ccccc3)c3c(Nc4ccc(CCNC(=N)N)cc4)ncnc32)[C@H](O)[C@@H]1O [Compound 267, 4-N-[4-(2-Guanidinoethyl)phenyl]amino-5-phenyl-7-(5-deoxy-1-β-D-ribofuranosyl)pyrrolo[2,3-d]pyrimidine hydrochloride] | 52.3% |  |  |  | 15.4% | 
9.00 | C[C@H]1O[C@@H](n2cc(-c3ccccc3)c3c(Nc4ccc(CCNC(=O)c5cccnc5)cc4)ncnc32)[C@H](O)[C@@H]1O [Compound 268, 4-N-[2-(Nicotinylaminoethyl)phenyl]amino-5-phenyl-7-(5-deoxy-1-β-D-ribofuranosyl)pyrrolo(2,3-d)pyrimidine] | 0.0% |  |  |  | 7.1% | 
 | NC[C@H]1O[C@@H](n2nc(Br)c3c(N)ncnc32)[C@H](O)[C@@H]1O [REF.B, 4amino-1-(5-amino-5-deoxy-1-D-ribofuranosyl)-3-bromopyrazolo[3,4d]pyrimidne HCL, reference compound] |  |  | 100 IU/L | 41 IU/L |  | 0.30 mg/dL

SMILES | pIC50 [1] | Carrageenan Paw (% inhibition) ip (Rats (carrageenan paw)) | Alkaline Phosphatase (Female SA rats) | SGOT (Female SA rats) | SGPT (Female SA rats) | Carrageenan Paw (% inhibition) po (Rats (carrageenan paw)) | Total Bilirubin (Female SA rats)
C[C@H]1O[C@@H](n2cc(-c3ccccc3)c3c(Nc4ccc(C(=O)N5CCNCC5)cc4)ncnc32)[C@H](O)[C@@H]1O [Compound 210, 4-N-[4-(4-piperazinocarbonylphenyl)]amino-5-phenyl-7-(5-deoxy-1-β-D-ribofuranosyl)pyrrolo[2,3-d]pyrimidine] | 8.70 | 23.8% |  |  |  | 0.0% | 
C[C@H]1O[C@@H](n2cc(-c3ccccc3)c3c(Nc4ccc(C(=O)NN5CCCCC5)cc4)ncnc32)[C@H](O)[C@@H]1O [Compound 212] | 8.70 | 1.8% |  |  |  | 0.0% | 
C[C@H]1O[C@@H](n2cc(-c3ccccc3)c3c(Nc4ccc(CCS(=O)(=O)O)cc4)ncnc32)[C@H](O)[C@@H]1O [Compound 265, 4-N[4-(2-Sulfonyloxyethyl)phenylamino]-5-phenyl-7-(5-deoxy-1-β-D-ribofuranosyl)pyrrolo[2,3-d]pyrimidine] | 8.70 | 10.0% |  |  |  | 6.2% | 

Source: US5795977A, “Water soluble adenosine kinase inhibitors” (Metabasis Therapeutics, Inc., priority 1996, dated 1998)
